{
  "source": "patent US20100129319A1",
  "about": "“TREATMENT OF DISEASE OR INJURY OF THE NERVOUS SYSTEM USING AGENTS THAT DECREASE THE ACTIVITY OF THE MELANOCORTIN 4 RECEPTOR” (priority 2006, published 2010)",
  "key": {"MC3": {"target": "MC3 (Homo sapiens, UniProt P41968)", "sequence (P41968 whole entry, species assumed)": "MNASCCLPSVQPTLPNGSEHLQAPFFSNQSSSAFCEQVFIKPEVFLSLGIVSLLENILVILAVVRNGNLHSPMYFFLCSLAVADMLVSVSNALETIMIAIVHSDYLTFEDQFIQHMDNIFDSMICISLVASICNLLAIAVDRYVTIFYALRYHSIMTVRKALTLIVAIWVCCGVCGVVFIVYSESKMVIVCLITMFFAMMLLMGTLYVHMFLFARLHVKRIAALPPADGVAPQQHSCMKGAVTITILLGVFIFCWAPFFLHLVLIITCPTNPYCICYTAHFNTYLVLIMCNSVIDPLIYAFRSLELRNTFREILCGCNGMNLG", "settings": "printed in the column Selectivity (over MC3); cited from earlier work"}, "[1]": {"target": "melanocortin 4 receptor (MC4R), murine (Mus musculus) (UniProt P56450)", "sequence (P56450 whole entry)": "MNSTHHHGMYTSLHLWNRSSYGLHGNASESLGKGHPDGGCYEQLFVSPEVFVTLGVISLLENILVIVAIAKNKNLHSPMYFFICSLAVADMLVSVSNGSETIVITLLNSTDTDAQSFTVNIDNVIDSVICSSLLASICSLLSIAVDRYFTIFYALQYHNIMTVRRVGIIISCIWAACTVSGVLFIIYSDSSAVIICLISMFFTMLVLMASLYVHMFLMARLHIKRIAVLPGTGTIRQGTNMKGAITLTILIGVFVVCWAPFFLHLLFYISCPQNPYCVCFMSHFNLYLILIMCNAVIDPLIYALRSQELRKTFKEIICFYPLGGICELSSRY", "experiment": "cell-based or functional assay"}, "adult neural stem cells [2]": {"system": "adult neural stem cells", "experiment": "ATP assay (intracellular ATP, cell number) in suspension cultures", "type": "cell-based, mice", "settings": "for ATP levels: 1-100 nM, 3 days, suspension cultures, vs control", "method": "(§1) The anterior lateral wall of the lateral ventricle wall (LVW) of 5 week old mice was enzymatically dissociated at 37° C. for 20 min in 0.8 mg/mL hyaluronidase and 0.5 mg/mL trypsin in DMEM containing 4.5 mg/mL glucose and 80 units/mL DNase. The cells were diluted in 5 mL of DMEM/F12 medium (containing B27 supplement, […] HEPES Ph 7.4, 100 units/mL penicillin, and 100 micrograms/mL streptomycin). After passing through a 70 micron strainer, the cells were pelleted at 240×g for 5 minutes, washed and recentrifuged. The supernatant was subsequently removed and the cells resuspended in medium supplemented with 20 nanogram/mL EGF, plated out in culture dishes and incubated at 37° C. Neurosphere cultures were ready to be split approximately 7 days after plating.\n(§2) To split the neurosphere cultures, neurospheres were collected by centrifugation at 240×g for 5 minutes. The supernatant was discarded and the neurospheres were resuspended in 0.5 mL Trypsin/EDTA in HBSS (1×) and incubated at 37° C. for 2 minutes. During this period, the neurospheres were triturated gently to aid dissociation. Following a further 2 min incubation at 37° C. and trituration, 2 volumes of DMEM-F12+B27 medium were added. The cells were pelleted at 220×g for 4 min and resuspended in DMEM/F12+B27-medium containing 10 ng/mL EGF and 5 ng/mL bFGF. Subsequently the cultures were plated out and incubated at 37° C.\nCells were harvested split as in example 1, except for omission of the growth factors in the media, and seeded as suspension cells, at a density of 10,000 cells/well on 96-well plates in DMEM/F12 supplemented with 1, 10 or 100 nM MC4R antagonist or without (control cells). Alternatively, adherent cells were seeded at a density of 30,000 cells/well on poly-D-lysine-coated 96-well plates in DMEM/F12 supplemented with 1% fetal calf serum (FCS). […]\nThe following experiment was performed in quadruplicate. […] Intracellular ATP was measured using a Cell Viability kit SL according to the manufacturer's instructions (#188-441, BioThema, Sweden). […]"}, "MC4R": {"target": "MC4R (Homo sapiens, UniProt P32245)", "sequence (P32245 whole entry, species assumed)": "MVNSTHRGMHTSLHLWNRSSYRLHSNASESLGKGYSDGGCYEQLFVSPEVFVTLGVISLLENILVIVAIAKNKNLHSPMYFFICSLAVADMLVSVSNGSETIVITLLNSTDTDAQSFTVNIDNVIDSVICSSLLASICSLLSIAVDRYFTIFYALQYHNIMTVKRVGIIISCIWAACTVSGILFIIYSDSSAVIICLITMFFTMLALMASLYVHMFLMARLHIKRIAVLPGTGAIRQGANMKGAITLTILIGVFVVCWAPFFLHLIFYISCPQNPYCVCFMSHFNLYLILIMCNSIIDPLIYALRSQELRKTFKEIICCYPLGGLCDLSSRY", "settings": "cited from earlier work; for Selectivity (over MC3): MC4R over MC3; for Ki: read-out: Affinity for MC4R (Ki)"}, "adult neural stem cells [3]": {"system": "adult neural stem cells", "experiment": "BrdU incorporation ELISA in adherent cultures", "type": "cell-based, mice", "settings": "1-100 nM, 3 days, vs control", "method": "as §1\nas §2, with “The cells were pelleted at 220×g for 4 min and resuspended in DMEM/F12+B27-medium containing 10 ng/mL EGF and 5 ng/mL bFGF. Subsequently the cultures were plated out and incubated at 37° C.” left out\nDNA synthesis is commonly used to measure cell proliferation. […] After incorporation if the thymidine analogue into DNA, BrdU was detected by immunoassay. […]"}, "[4]": {"system": "6-OHDA-lesioned rat model of Parkinson's disease", "experiment": "Amphetamine-induced rotation in the 6-OHDA-lesioned rat model of Parkinson's disease (Example 5)", "type": "in vivo", "settings": "62.5 ng/day i.c.v. for 2 weeks", "from_the_text": "In this study, the neurorestorative action of HS014 (from Sigma Aldrich) was investigated in the 6-hydroxydopamine (6-OHDA)-lesioned rat model of Parkinson's disease where the animals have a partial, unilateral loss of dopaminergic neurons. The lesion is induced by a single injection of 6-OHDA in the median forebrain bundle (see below). Upon amphetamine stimulation, the lesioned animals will display ipsiversive rotational behavior due to the imbalance in dopamine release resulting from the unilateral loss of dopaminergic cells. This allows the functional effects of a compound tested in this model to be quantified by counting the number of amphetamine-induced rotations.\nMale Sprague-Dawley rats weighing 280-320 g were housed in a temperature-controlled room under a 12 h light/dark cycle with free access to food and water. Thirty minutes prior to surgery, animals were injected intraperitoneally with pargyline (5 mg/kg) and desipramine (25 mg/kg). Rats were then placed in a stereotactic frame under general anaesthesia (Halothane). A small bur-hole was made in the right side of the skull. Each animal was given a unilateral injection of 4 μg, 6-OHDA (in 2 μl sterile water with 0.1% ascorbic acid) into the right medial forebrain bundle at co-ordinates −2.8 mm from bregma, 2 mm lateral to the midline, and 8.6 mm below skull according to the atlas of Paxinos and Watson. The 6-OHDA injection was made over a 5 min period using a 5 μl Hamilton syringe. The rats were allowed to recover for 5 weeks following the lesion. The animals were then implanted with an Alzet minipump attached to a cannula to allow infusion of HS014 or vehicle into the right lateral ventricle over a period of 2 weeks. The Alzet minipump was removed […].\n24 rats were divided into 2 groups, individual rats being randomly assigned to a treatment group based on their baseline rotation (5 weeks post lesion) so they were equally distributed. […] Rotational activity was measured by counting the total number of turns for the duration of the experiment. […] Body weight was also recorded weekly. […]"}, "[5]": {"experiment": "Body weight during i.c.v. infusion (Example 4)", "type": "in vivo, rats", "method": "BrdU was administered together with HS014 i.c.v."}, "[6]": {"system": "neuronal stem/progenitor cell proliferation in the SVZ", "settings": "i.c.v. infusion of 6.25, 62.5 or 625 ng/day for two weeks", "experimental": "To further characterize MC4R antagonist-stimulation of neogenesis, in vivo studies were performed. The effect of HS014 on proliferation (BrdU incorporation) was tested over a two week period at doses ranging from 6.25 to 625 ng/24h. Administration was done by i.c.v. infusion into the right lateral ventricle. BrdU was administered together with HS014 i.c.v. The animal's body weight was measured throughout the experiment. After termination of the experiment, BrdU expression was detected by immunohistochemistry on brain sections from the subependymal layer of the lateral ventricle wall as well as on the sub granular cells in dentate gyrus. […]\nAs an additional marker for understanding whether a dose that is effective in eliciting a response controlled by the central nervous system, weight gain was also monitored throughout the experiment by weighing the animals. […]\nAt the end of the experiment the rats were anaesthetized with sodium pentobarbital (120 mg, i.p.) and transcardially perfused with 90 ml of 0.9% NaCl and 4% PFA solution. […] As detection, Vectastain Elite (Vector) 1/100 was used and finally, developing was done by Sigma fast DAB tablet monitored in microscope, sections were then counterstained by HTX followed by dehydration and clearing.\nQuantification was performed using a Nikon eclipse E6000 microscope at a magnification of 40×. […]"}, "[7]": {"settings": "i.c.v. 2×1 nanomoles daily for 6 days or 0.16 nanomoles per hour for 2 weeks; cited from earlier work"}},
  "note": "Bridges are numbered along the chain shown (N, C = ends). [ ]: non-standard residue; d: D form. d2Nal = N[C@H](Cc1ccc2ccccc2c1)C(=O)O; dPhe(diCl) = diCl-D-Phe",
  "data": [
    {"molecule": "NCCC(=O)N[C@H](Cc1ccc(Cl)cc1Cl)C(=O)N1CCN(c2ccccc2CNCCc2cccs2)CC1", "note": "[Compound10, 4-{(2R)-[3-Aminopropionylamido]-3-(2,4-dichlorophenyl)propionyl}-1-{2-[(2-thienyl)ethylaminomethyl]phenyl}piperazine]", "values": [
      {"measurement": "potency in cAMP assay", "setting": "MC3", "result": "No potency i cAMP"}
    ]},
    {"molecule": "Agouti (87-132) (peptide)", "values": [
      {"measurement": "proliferation in the ATP-assay, at 400 nM (times control)", "setting": "[1]", "result": 1.6}
    ]},
    {"molecule": "Agouti (87-132): endogenous MC4R antagonist peptide analogue (TPLSAPCVATRNSCKPPAPACCDPCASCQCRFFRSACSCRVLSLNC; UniProt P42127 87-132, looked up, fragment)", "values": [
      {"measurement": "increase in proliferation (ATP-assay)", "setting": "adult neural stem cells [2]; at 400 nM", "result": 1.6, "unit": "times control"}
    ]},
    {"molecule": "HS024", "values": [
      {"measurement": "Selectivity (over MC3)", "setting": "MC4R", "result": "20-fold"},
      {"measurement": "Ki", "setting": "MC4R", "result": 0.29, "unit": "nM"}
    ]},
    {"molecule": "[acetyl group]-Cys-Glu-His-(D-2-Nal)-Arg-Trp-Gly-Cys-Pro-Pro-Lys-Asp-[amide group] (Ac-CEH[d2Nal]RWGCPPKD-NH2; disulfide 1-8 (inferred)) [HS014]", "values": [
      {"measurement": "BrdU incorporation", "setting": "adult neural stem cells [3]", "result": "increase BrdU incorporation"},
      {"measurement": "Selectivity (over MC3)", "setting": "MC4R", "result": "10-fold"},
      {"measurement": "Ki", "setting": "MC4R", "result": 3.2, "unit": "nM"},
      {"measurement": "persistence of improvement after administration was stopped", "setting": "[4]", "result": "maintained for at least two weeks"},
      {"measurement": "rotation at week 4 compared to pre-pump levels", "setting": "[4]; then 2 weeks without treatment", "result": "approximately 30%"},
      {"measurement": "net ipsiversive rotations at weeks 1-4 compared to the pre-pump response", "setting": "[4]; all P<0.01", "result": "significant reduction"},
      {"measurement": "dose at which weight gain was first significant", "setting": "[5]; i.c.v. infusion for two weeks", "result": 62.5, "unit": "ng/day"},
      {"measurement": "dose with greatest weight gain", "setting": "[5]; i.c.v. infusion for two weeks", "result": 625, "unit": "ng/day"},
      {"measurement": "weight gain", "setting": "[5]; i.c.v. infusion of 6.25, 62.5 or 625 ng/day for two weeks", "result": "increased in a dose-dependent manner"},
      {"measurement": "dose with greatest effect on neuronal stem/progenitor cell proliferation (BrdU counts, SVZ)", "setting": "[6]", "result": 62.5, "unit": "ng/day"},
      {"measurement": "ATP levels", "setting": "adult neural stem cells [2]", "result": "increase ATP levels"},
      {"measurement": "food intake and body weight", "setting": "[7]", "result": "considerable increase in food intake and body weight"}
    ]},
    {"molecule": "[acetyl group]-Cys-Glu-His-(diCl-D-Phe)-Arg-Trp-Gly-Cys-Pro-Pro-Lys-Asp-[amide group] (Ac-CEH[dPhe(diCl)]RWGCPPKD-NH2; not fully specified (bridges); also: cyclic, bridge not given here) [HS028]", "values": [
      {"measurement": "Selectivity (over MC3)", "setting": "MC4R", "result": "80-fold"},
      {"measurement": "Ki", "setting": "MC4R", "result": 0.95, "unit": "nM"},
      {"measurement": "ATP levels", "setting": "adult neural stem cells [2]", "result": "increase ATP levels"}
    ]}
  ]
}
